Experimental data as given in patent US20240025862A1, “SUBSTITUTED N-PHENYLURACILS AND SALTS THEREOF, AND USE THEREOF AS HERBICIDAL ACTIVE SUBSTANCES” (Bayer Aktiengesellschaft, priority 2020, published 2024).

Tests used:
Assay type in all cases: in vivo
Avena fatua (AVEFA) = experiment: Post-emergence herbicidal action, greenhouse pot test; settings: rated visually after about 3 weeks vs untreated controls, 100% = plants have died
Outline: (§1)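 Greenhouse-grown weeds in sandy loam were sprayed post-emergence at the one-leaf stage, 2–3 weeks after sowing. Compounds were formulated as WP or EC in water with 0.5% additive at 600 l/ha, at rates of 20 g/ha or less. Visual rating after about 3 weeks used a scale from 0% (like untreated control) to 100% (plants dead).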

[1] = test system: Amaranthus retroflexus (AMARE); experiment: as above; settings: rated visually after about 3 weeks vs untreated controls, 100% = plants have died
Outline: as §1

Veronica persica (VERPE) = experiment: as above
Outline: as §1

[2] = test system: Abutilon theophrasti (ABUTH); experiment: as above; settings: rated visually after about 3 weeks vs untreated controls, 100% = plants have died
Outline: as §1

Viola tricolor (VIOTR) = experiment: as above
Outline: as §1

[3] = test system: Pharbitis purpurea (PHBPU); experiment: as above
Outline: as §1

[4] = test system: Polygonum convolvulus (POLCO); experiment: as above
Outline: as §1

Oryza sativa (ORYSA) = experiment: Post-emergence crop plant compatibility, greenhouse pot test (also comparative test C); settings: for Post-emergence action against ORYSA (crop plant compatibility): vs untreated controls; for Post-emergence action against ORYSA in %: 20 g/ha, crop plant compatibility
Outline: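 Rice and other crops sprayed post-emergence at one-leaf stage (2–3 weeks after sowing) with WP or EC formulations plus 0.5% additive at 600 l/ha water. Visual rating about 3 weeks later versus untreated controls (100% = dead, 0% = like control); suffixes a–c denote different doses.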

[5] = test system: Echinochloa crus-galli (ECHCG); experiment: Post-emergence herbicidal action, greenhouse pot test (also comparative test C)
Outline: (§2)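 Visual rating against untreated controls, about 3 weeks after spraying, from 0% (like control) to 100% (plants dead). Weeds were treated at the one-leaf stage, 2–3 weeks after sowing in sandy loam, with aqueous WP/EC spray containing 0.5% additive at 600 l/ha. Doses were ≤20 g/ha, or ≤5 g/ha for comparative test C.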

[6] = test system: Matricaria inodora (MATIN); experiment: as above
Outline: as §2

Setaria viridis (SETVI) = experiment: as above; settings: for Post-emergence action against SETVI: 20 g/ha
Outline: as §2

[7] = test system: Alopecurus myosuroides (ALOMY); experiment: as above; settings: rated visually after about 3 weeks vs untreated controls, 100% = plants have died
Outline: as §2

Zea mays (ZEAMX) = experiment: Post-emergence crop plant compatibility, greenhouse pot test; settings: vs untreated controls
Outline: (§3)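 Crop plants grown in sandy loam in the greenhouse were sprayed post-emergence at the one-leaf stage, 2–3 weeks after sowing, with WP or EC formulations as aqueous suspension/emulsion plus 0.5% additive at 600 l/ha. Damage was rated visually about 3 weeks later versus untreated controls (0% = like control, 100% = plants dead).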

Glycine max (GLXMA) = experiment: as above
Outline: as §3

[8] = test system: Triticum aestivum (TRZAS); experiment: as above; settings: vs untreated controls
Outline: as §3

Stellaria media (STEME) = experiment: Post-emergence herbicidal action, greenhouse pot test
Outline: as §1

With `Cn1c(C(F)(F)F)cc(=O)n(-c2cc(Oc3ccccc3OCC(=O)OCc3ccccn3)c(C#N)cc2F)c1=O` [I.9-276] the “Post-emergence action at 5 g/ha against AVEFA in %” value (Avena fatua (AVEFA); 5 g/ha) was 80%, the “Post-emergence action at 20 g/ha against AVEFA in %” value (Avena fatua (AVEFA)) was 90% and the “Post-emergence action at 1.25 g/ha against AMARE in %” value [1] was 100%. For the same compound, the “Post-emergence action at 5 g/ha against AMARE in %” value [1] was 100%, the “Post-emergence action at 20 g/ha against AMARE in %” value [1] was 100% and the “Post-emergence action against VERPE” value (Veronica persica (VERPE); 1.25 g/ha) was 80%. The “Post-emergence action against VERPE” value (Veronica persica (VERPE); 5 g/ha) was 100%, the “Post-emergence action against VERPE” value (Veronica persica (VERPE); 20 g/ha) was 100% and the “Post-emergence action at 1.25 g/ha against ABUTH in %” value [2] was 100%. The “Post-emergence action at 5 g/ha against ABUTH in %” value [2] was 100%, the “Post-emergence action at 20 g/ha against ABUTH in %” value [2] was 100% and the “Post-emergence action against VIOTR” value (Viola tricolor (VIOTR); 1.25 g/ha) was 100%. For the same compound, the “Post-emergence action against VIOTR” value (Viola tricolor (VIOTR); 5 g/ha) was 100%, the “Post-emergence action against VIOTR” value (Viola tricolor (VIOTR); 20 g/ha) was 100% and the “Post-emergence action against PHBPU in %” value ([3]; dosage 1.25 g/ha) was 100%. The “Post-emergence action against PHBPU in %” value ([3]; dosage 5 g/ha) was 100%, the “Post-emergence action against PHBPU in %” value ([3]; dosage 20 g/ha) was 100% and the “Post-emergence action against POLCO in %” value ([4]; dosage 20 g/ha) was 100%. The “Post-emergence action against ORYSA (crop plant compatibility)” value (Oryza sativa (ORYSA); 1.25 g/ha) was 0%, the “Post-emergence action against ORYSA (crop plant compatibility)” value (Oryza sativa (ORYSA); 5 g/ha) was 0% and the “Post-emergence action against ORYSA in %” value (Oryza sativa (ORYSA)) was 0%. The “Post-emergence action against ECHCG in %” value ([5]; dosage 5 g/ha) was 100%, the “Post-emergence action against ECHCG in %” value ([5]; dosage 20 g/ha) was 100% and the “Post-emergence action against MATIN in %” value ([6]; dosage 5 g/ha) was 100%. The “Post-emergence action against MATIN in %” value ([6]; dosage 20 g/ha) was 100%, the “Post-emergence action against SETVI” value (Setaria viridis (SETVI)) was 100% and the “Post-emergence action against SETVI in %” value (Setaria viridis (SETVI); dosage 1.25 g/ha) was 100%. For the same compound, the “Post-emergence action against SETVI in %” value (Setaria viridis (SETVI); dosage 5 g/ha) was 100%, the “Post-emergence action at 5 g/ha against ALOMY in %” value [7] was 100% and the “Post-emergence action at 20 g/ha against ALOMY in %” value [7] was 100%. The “Post-emergence action against ZEAMX (crop plant compatibility)” value (from here on “Post-emergence action against ZEAMX”) (Zea mays (ZEAMX); 1.25 g/ha) was 0%, the “Post-emergence action against ZEAMX” value (Zea mays (ZEAMX); 5 g/ha) was 0% and the “Post-emergence action against ZEAMX” value (Zea mays (ZEAMX); 20 g/ha) was 20%. The “Post-emergence action against GLXMA in %” value (Glycine max (GLXMA); 1.25 g/ha) was 0% and the “Post-emergence action against TRZAS (crop plant compatibility)” value (from here on “Post-emergence action against TRZAS”) ([8]; 1.25 g/ha) was 0%.
In the case of `Cn1c(C(F)(F)F)cc(=O)n(-c2cc(Sc3ccccc3OCC(=O)OCC3CCOC3)c(Cl)cc2F)c1=O` (racemic) [I.1-72], the “Post-emergence action at 1.25 g/ha against AMARE in %” value [1] is reported as 80%, the “Post-emergence action at 5 g/ha against AMARE in %” value [1] is reported as 100% and the “Post-emergence action at 20 g/ha against AMARE in %” value [1] is reported as 100%. For the same compound, the “Post-emergence action against VERPE” value (Veronica persica (VERPE); 1.25 g/ha) was 100%, the “Post-emergence action against VERPE” value (Veronica persica (VERPE); 5 g/ha) was 100% and the “Post-emergence action against VERPE” value (Veronica persica (VERPE); 20 g/ha) was 100%. The “Post-emergence action at 1.25 g/ha against ABUTH in %” value [2] was 100%, the “Post-emergence action at 5 g/ha against ABUTH in %” value [2] was 100% and the “Post-emergence action at 20 g/ha against ABUTH in %” value [2] was 100%. The “Post-emergence action against STEME” value (Stellaria media (STEME); 5 g/ha) was 100%, the “Post-emergence action against STEME” value (Stellaria media (STEME); 20 g/ha) was 100% and the “Post-emergence action against VIOTR” value (Viola tricolor (VIOTR); 1.25 g/ha) was 100%. For the same compound, the “Post-emergence action against VIOTR” value (Viola tricolor (VIOTR); 5 g/ha) was 100%, the “Post-emergence action against VIOTR” value (Viola tricolor (VIOTR); 20 g/ha) was 100% and the “Post-emergence action against PHBPU in %” value ([3]; dosage 1.25 g/ha) was 80%. For the same compound, the “Post-emergence action against PHBPU in %” value ([3]; dosage 5 g/ha) was 100%, the “Post-emergence action against PHBPU in %” value ([3]; dosage 20 g/ha) was 100% and the “Post-emergence action against POLCO in %” value ([4]; dosage 1.25 g/ha) was 80%. The “Post-emergence action against POLCO in %” value ([4]; dosage 5 g/ha) was 100%, the “Post-emergence action against POLCO in %” value ([4]; dosage 20 g/ha) was 100% and the “Post-emergence action against ORYSA (crop plant compatibility)” value (Oryza sativa (ORYSA); 1.25 g/ha) was 10%. The “Post-emergence action against ORYSA (crop plant compatibility)” value (Oryza sativa (ORYSA); 5 g/ha) was 20%, the “Post-emergence action against ECHCG in %” value ([5]; dosage 20 g/ha) was 100% and the “Post-emergence action against MATIN in %” value ([6]; dosage 5 g/ha) was 90%. For the same compound, the “Post-emergence action against MATIN in %” value ([6]; dosage 20 g/ha) was 100%, the “Post-emergence action against SETVI” value (Setaria viridis (SETVI)) was 100% and the “Post-emergence action against SETVI in %” value (Setaria viridis (SETVI); dosage 1.25 g/ha) was 100%. For the same compound, the “Post-emergence action against SETVI in %” value (Setaria viridis (SETVI); dosage 5 g/ha) was 100%, the “Post-emergence action at 20 g/ha against ALOMY in %” value [7] was 80% and the “Post-emergence action against ZEAMX” value (Zea mays (ZEAMX); 1.25 g/ha) was 10%. The “Post-emergence action against ZEAMX” value (Zea mays (ZEAMX); 5 g/ha) was 20%, the “Post-emergence action against GLXMA in %” value (Glycine max (GLXMA); 1.25 g/ha) was 10% and the “Post-emergence action against GLXMA in %” value (Glycine max (GLXMA); 5 g/ha) was 20%. For the same compound, the “Post-emergence action against TRZAS” value ([8]; 1.25 g/ha) was 20%.
`Cn1c(C(F)(F)F)cc(=O)n(-c2cc(Oc3ccccc3OCC(=O)OCCOC(F)(F)F)c([N+](=O)[O-])cc2F)c1=O` [I.6-41] was tested, and the “Post-emergence action at 20 g/ha against AVEFA in %” value (Avena fatua (AVEFA)) was 80%, the “Post-emergence action at 1.25 g/ha against AMARE in %” value [1] was 100% and the “Post-emergence action at 5 g/ha against AMARE in %” value [1] was 100%. For the same compound, the “Post-emergence action at 20 g/ha against AMARE in %” value [1] was 100%, the “Post-emergence action against VERPE” value (Veronica persica (VERPE); 5 g/ha) was 100% and the “Post-emergence action against VERPE” value (Veronica persica (VERPE); 20 g/ha) was 100%. The “Post-emergence action at 1.25 g/ha against ABUTH in %” value [2] was 100%, the “Post-emergence action at 5 g/ha against ABUTH in %” value [2] was 100% and the “Post-emergence action at 20 g/ha against ABUTH in %” value [2] was 100%. The “Post-emergence action against VIOTR” value (Viola tricolor (VIOTR); 1.25 g/ha) was 100%, the “Post-emergence action against VIOTR” value (Viola tricolor (VIOTR); 5 g/ha) was 100% and the “Post-emergence action against VIOTR” value (Viola tricolor (VIOTR); 20 g/ha) was 100%. The “Post-emergence action against PHBPU in %” value ([3]; dosage 1.25 g/ha) was 100%, the “Post-emergence action against PHBPU in %” value ([3]; dosage 5 g/ha) was 100% and the “Post-emergence action against PHBPU in %” value ([3]; dosage 20 g/ha) was 100%. The “Post-emergence action against POLCO in %” value ([4]; dosage 20 g/ha) was 100%, the “Post-emergence action against ORYSA (crop plant compatibility)” value (Oryza sativa (ORYSA); 1.25 g/ha) was 10% and the “Post-emergence action against ORYSA (crop plant compatibility)” value (Oryza sativa (ORYSA); 5 g/ha) was 10%. The “Post-emergence action against ORYSA in %” value (Oryza sativa (ORYSA)) was 20%, the “Post-emergence action against ECHCG in %” value ([5]; dosage 5 g/ha) was 100% and the “Post-emergence action against ECHCG in %” value ([5]; dosage 20 g/ha) was 100%. For the same compound, the “Post-emergence action against MATIN in %” value ([6]; dosage 5 g/ha) was 80%, the “Post-emergence action against MATIN in %” value ([6]; dosage 20 g/ha) was 100% and the “Post-emergence action against SETVI” value (Setaria viridis (SETVI)) was 100%. The “Post-emergence action against SETVI in %” value (Setaria viridis (SETVI); dosage 1.25 g/ha) was 100%, the “Post-emergence action against SETVI in %” value (Setaria viridis (SETVI); dosage 5 g/ha) was 100% and the “Post-emergence action at 5 g/ha against ALOMY in %” value [7] was 80%. For the same compound, the “Post-emergence action at 20 g/ha against ALOMY in %” value [7] was 100%, the “Post-emergence action against ZEAMX” value (Zea mays (ZEAMX); 1.25 g/ha) was 20% and the “Post-emergence action against TRZAS” value ([8]; 1.25 g/ha) was 10%. For the same compound, the “Post-emergence action against TRZAS” value ([8]; 5 g/ha) was 20% and the “Post-emergence action against TRZAS” value ([8]; 20 g/ha) was 20%.
